Assay results from patent US20130267494A1, “1,4-OXAZEPANE DERIVATIVES” (priority 2010, published 2013).
Structures can show the parent of a compound that is named as a salt.

Experiments:
Type in all cases: cell-based
[1] = molecular target: T1, human serotonin transporter (Homo sapiens, UniProt P31645); experiment: Inhibitory action on human serotonin transporter ([3H]-5-hydroxytryptamine uptake in CHO cells); settings: relative to inhibitory activity of 10 μM Paroxetine as 100%; for inhibition at 1 µM / inhibition at 10 µM: CHO, read-out: inhibitory rate (%)
T1 construct: expressed in transfected cells
Source text: (§1) Human serotonin transporter cDNA was amplified from human brain cDNA library by PCR, and inserted into pCRII-TOPO vector (manufactured by Invitrogen). The base sequence was confirmed and modified, and subcloned to pcDNA3.1 vector (manufactured by Invitrogen), whereby a human serotonin transporter expression plasmid was constructed. Human norepinephrine transporter cDNA was purchased from Invitrogen, and the base sequence was confirm and modified, and subcloned to pcDNA3.1 vector, whereby a human norepinephrine transporter expression plasmid was constructed.
(§2) The monoamine transporter expression plasmids thus prepared were introduced into CHO-K1 cells using FuGENE6 (manufactured by Roche Diagnostics) and according to the attached protocol, whereby each expressing cell was established.
CHO cells stably expressing a human serotonin transporter were used for the measurement of human serotonin transporter inhibitory activity. Unless particularly indicated, these CHO cells were cultured in a Ham/F12 medium (Invitrogen) containing 10% fetal bovine serum (MOREGATE).
(§3) The cultured cells that reached almost confluent were rinsed with PBS (Invitrogen), detached with Trypsin/EDTA (Invitrogen), and collected by a centrifugal operation. The obtained cells were counted, and diluted to 3×10^5 cells per 1 mL medium, the mixture was dispensed to a 96 well white plate (Corning) at 100 μL per well, and cultured overnight in a CO2 incubator.
(§4) Then, an assay buffer (126 mM NaCl, 4.95 mM KCl, 1.26 mM KH2PO4, 1.26 mM MgSO4, 10 mM HEPES, 2.32 mM CaCl2, 5.52 mM Glucose, 0.5% BSA) was prepared, the medium in the cell plate was removed and the assay buffer was added by 80 μL. A test compound was diluted with the assay buffer to a 10-fold concentration of the final concentration, and the mixture was dispensed to a 96 well polypropylene plate. The diluted test compound was dispensed to the cell plate by 10 μL. [3H]-5-Hydroxytryptamine (GE Healthcare) was diluted with the assay buffer to 200 nM, and the mixture was dispensed to the cell plate by 10 μL. At 20 min from [3H]-5-hydroxytryptamine addition, the assay buffer was removed by suction, and the plate was washed twice with 150 μL of PBS (Invitrogen) per well. Microscinti20 (PerkinElmer) was dispensed to each well by 100 μL, and the mixture was stirred for about 30 min. The radioactivity was measured by TopCount (PerkinElmer).
The inhibitory activity of each compound (10 μM) was calculated as a relative activity value based on the inhibitory activity of 10 μM Paroxetine (serotonin transporter inhibitor) as 100%.
In addition, the inhibitory activity of each compound (1 μM) was calculated as a relative activity value based on the inhibitory activity of 10 μM Paroxetine (serotonin transporter inhibitor) as 100%.

[2] = molecular target: T2, human dopamine transporter (Homo sapiens, UniProt Q01959); experiment: Inhibitory action on human dopamine transporter ([3H]-dopamine uptake in CHO cells); settings: relative to inhibitory activity of 100 μM Nomifensine as 100%; for inhibition at 1 µM / inhibition at 10 µM: CHO, read-out: inhibitory rate (%)
T2 construct: expressed in transfected cells
Source text: SRα promoter contained in pTB1411 described in JP-A-H5-076385 was cleaved with restriction enzyme […](manufactured by TAKARA BIO INC.), blunt-ended, further cleaved with restriction enzyme EcoRI (manufactured by TAKARA BIO INC.), and fragmented. On the other hand, pCI vector was cleaved with restriction enzyme BglII (manufactured by TAKARA BIO INC.), blunt-ended with T4 DNA polymerase, and further cleaved with restriction enzyme EcoRI (manufactured by TAKARA BIO INC.). Into this site was inserted an SRa promoter fragment to give pCI-SRa. Then, pCI-SRa was cleaved with restriction enzyme ClaI (manufactured by TAKARA BIO INC.) and blunt-ended. Into this site was inserted a 1.63 Kb fragment obtained by cleaving pGFP-C1 (manufactured by TOYOBO) with restriction enzyme Bsu36I (manufactured by Daiichi Pure Chemicals Co., Ltd.) followed by blunt-ending, whereby pMSRα neo was prepared. Human dopamine transporter cDNA was amplified from human substantia nigra cDNA library by PCR, and inserted into the pCRII vector (manufactured by Invitrogen). The base sequence was confirmed, modified and subcloned to pMSRα neo, whereby a human dopamine transporter expression plasmid was constructed.
as §2
CHO cells stably expressing human dopamine transporter were used for the measurement of human dopamine transporter inhibitory activity. Unless otherwise indicated, these CHO cells were cultured in Ham/F12 medium (Invitrogen) containing 10% fetal bovine serum (MOREGATE).
as §3, with “One day before the assay, the cultured” for “The cultured”, “medium, and” for “medium,”
as §4, with “On the day of the test, an” for “Then, an”, “μL. [3H]-Dopamine” for “μL. [3H]-5-Hydroxytryptamine”, “nM, cold dopamine was diluted to 10 μM,” for “nM,”, “At 60” for “At 20”, “from [3H]-dopamine” for “from [3H]-5-hydroxytryptamine”
The inhibitory activity of each compound (10 μM) was calculated as a relative activity value based on the inhibitory activity of 100 μM Nomifensine (dopamine transporter inhibitor) as 100%.
The inhibitory activity of each compound (1 μM) was m calculated as a relative activity value based on the inhibitory activity of 100 μM Nomifensine (dopamine transporter inhibitor) as 100%.

[3] = molecular target: T3, human norepinephrine transporter (Homo sapiens, UniProt P23975); experiment: Inhibitory action on human norepinephrine transporter ([3H]-norepinephrine uptake in CHO cells); settings: relative to inhibitory activity of 10 μM DMI as 100%; for inhibition at 1 µM / inhibition at 10 µM: CHO, read-out: inhibitory rate (%)
T3 construct: expressed in transfected cells
Source text: as §1, §2
CHO cells stably expressing human norepinephrine transporter were used for the measurement of human norepinephrine transporter inhibitory activity. Unless otherwise indicated, these CHO cells were cultured in Ham/F12 medium (Invitrogen) containing 10% fetal bovine serum (MOREGATE).
as §3, with “medium, and” for “medium,”
as §4, with “μL. [3H]-Norepinephrine” for “μL. [3H]-5-Hydroxytryptamine”, “At 45” for “At 20”, “from [3H]-norepinephrine” for “from [3H]-5-hydroxytryptamine”
The inhibitory activity of each compound (10 μM) was calculated as a relative activity value based on the inhibitory activity of 10 μM DMI (norepinephrine transporter inhibitor) as 100%.
The inhibitory activity of each compound (1 μM) was calculated as a relative activity value based on the inhibitory activity of 10 μM DMI (norepinephrine transporter inhibitor) as 100%.

[4] = compound 10 μM, CHO cells expressing human serotonin transporter

T3 sequence (P23975 whole entry): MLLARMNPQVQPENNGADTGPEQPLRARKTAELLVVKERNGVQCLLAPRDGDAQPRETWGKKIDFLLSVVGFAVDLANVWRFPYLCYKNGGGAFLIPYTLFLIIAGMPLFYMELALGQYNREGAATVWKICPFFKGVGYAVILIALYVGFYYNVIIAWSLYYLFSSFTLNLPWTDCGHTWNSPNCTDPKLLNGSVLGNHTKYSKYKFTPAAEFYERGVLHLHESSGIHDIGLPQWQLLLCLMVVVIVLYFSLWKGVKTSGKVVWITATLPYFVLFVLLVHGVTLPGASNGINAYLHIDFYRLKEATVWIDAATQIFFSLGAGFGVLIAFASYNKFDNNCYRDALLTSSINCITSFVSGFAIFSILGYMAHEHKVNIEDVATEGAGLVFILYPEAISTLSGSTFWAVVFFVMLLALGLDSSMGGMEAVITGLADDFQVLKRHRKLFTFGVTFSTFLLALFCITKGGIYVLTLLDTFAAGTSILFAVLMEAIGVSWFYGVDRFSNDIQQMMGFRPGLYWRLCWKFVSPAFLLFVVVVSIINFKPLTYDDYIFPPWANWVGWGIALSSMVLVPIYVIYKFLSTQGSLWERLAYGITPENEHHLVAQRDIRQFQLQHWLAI
T2 sequence (Q01959 whole entry): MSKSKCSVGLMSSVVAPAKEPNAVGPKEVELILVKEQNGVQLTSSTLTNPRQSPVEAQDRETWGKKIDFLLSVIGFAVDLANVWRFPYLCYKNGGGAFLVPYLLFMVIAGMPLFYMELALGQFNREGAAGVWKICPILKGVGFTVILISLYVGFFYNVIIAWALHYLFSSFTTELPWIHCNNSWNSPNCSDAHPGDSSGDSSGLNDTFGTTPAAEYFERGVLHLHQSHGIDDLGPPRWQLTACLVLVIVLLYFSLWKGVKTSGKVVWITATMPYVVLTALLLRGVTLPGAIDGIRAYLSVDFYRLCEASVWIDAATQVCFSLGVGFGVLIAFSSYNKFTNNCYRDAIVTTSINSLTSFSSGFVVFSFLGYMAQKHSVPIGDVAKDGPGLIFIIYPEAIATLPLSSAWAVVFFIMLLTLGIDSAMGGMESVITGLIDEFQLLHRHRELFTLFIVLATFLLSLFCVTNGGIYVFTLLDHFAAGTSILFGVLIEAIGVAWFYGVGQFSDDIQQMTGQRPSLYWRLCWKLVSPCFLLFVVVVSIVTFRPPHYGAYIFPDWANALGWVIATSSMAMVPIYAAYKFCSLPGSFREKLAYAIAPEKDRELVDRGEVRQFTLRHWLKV
T1 sequence (P31645 whole entry): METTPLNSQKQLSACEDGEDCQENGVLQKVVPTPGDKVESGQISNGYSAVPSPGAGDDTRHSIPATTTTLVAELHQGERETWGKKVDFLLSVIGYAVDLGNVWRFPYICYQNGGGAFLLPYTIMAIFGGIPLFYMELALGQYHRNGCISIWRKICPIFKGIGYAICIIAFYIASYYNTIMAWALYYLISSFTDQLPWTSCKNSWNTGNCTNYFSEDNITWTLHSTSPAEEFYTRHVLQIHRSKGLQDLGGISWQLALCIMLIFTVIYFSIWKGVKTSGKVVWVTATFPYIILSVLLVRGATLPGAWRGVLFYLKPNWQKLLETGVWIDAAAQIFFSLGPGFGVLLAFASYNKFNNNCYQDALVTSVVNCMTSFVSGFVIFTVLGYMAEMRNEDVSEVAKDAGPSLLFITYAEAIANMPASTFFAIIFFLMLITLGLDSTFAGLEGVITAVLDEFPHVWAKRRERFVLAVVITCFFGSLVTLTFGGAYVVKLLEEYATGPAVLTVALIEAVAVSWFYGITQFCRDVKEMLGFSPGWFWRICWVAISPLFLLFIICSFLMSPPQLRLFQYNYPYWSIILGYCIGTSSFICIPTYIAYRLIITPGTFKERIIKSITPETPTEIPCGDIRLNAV

Row | SMILES | inhibition at 1 µM ([1]; compound 1 μM) [%] | inhibition at 10 µM [1, 4] [%] | inhibition at 1 µM ([2]; compound 1 μM) [%] | inhibition at 10 µM ([2]; compound 10 μM) [%] | inhibition at 1 µM ([3]; compound 1 μM) [%] | inhibition at 10 µM ([3]; compound 10 μM) [%] | inhibitory rate (%) ([1]; compound 1 μM) | inhibitory rate (%) [1, 4] [%] | inhibitory rate (%) ([2]; compound 1 μM) | inhibitory rate (%) ([2]; compound 10 μM) | inhibitory rate (%) ([3]; compound 1 μM) | inhibitory rate (%) ([3]; compound 10 μM)
1 | CS(=O)(=O)C[C@H]1CNCCOC1c1ccc(F)c(Cl)c1 (mixture of isomers) [Example 12, (6RS,7SR)-7-(3-chloro-4-fluorophenyl)-6-[(methylsulfonyl)methyl]-1,4-oxazepane monohydrochloride] | 87 | 97 | 39 | 90 | 97 | 100 | – | – | – | – | – | –
2 | OC[C@H]1NCCOC[C@@H]1c1ccc(Cl)c(Cl)c1 (racemic) [Example 14, [(5RS,6SR)-6-(3,4-dichlorophenyl)-1,4-oxazepan-5-yl]methanol monohydrochloride] | – | – | – | – | – | – | 31 | 79 | 87 | 99 | 98 | 100
3 | COC1(c2ccc(Cl)c(Cl)c2)CNCCOC1 (racemic) [Example 17, (6RS)-6-(3,4-dichlorophenyl)-6-methoxy-1,4-oxazepane monohydrochloride] | 70 | 96 | 19 | 53 | 75 | 97 | – | – | – | – | – | –
4 | NS(=O)(=O)NCC1(c2ccc(Cl)c(Cl)c2)CCNCCO1 (racemic) [Example 22, N-{[(7RS)-7-(3,4-dichlorophenyl)-1,4-oxazepan-7-yl]methyl}sulfamide monohydrochloride] | 82 | 98 | 25 | 63 | 97 | 99 | – | – | – | – | – | –
5 | CS(=O)(=O)NCC1(c2ccc(Cl)c(Cl)c2)CNCCCO1 (racemic) [Example 24, N-{[(2RS)-2-(3,4-dichlorophenyl)-1,4-oxazepan-2-yl]methyl}methanesulfonamide monohydrochloride] | 87 | 99 | 20 | 50 | 94 | 99 | – | – | – | – | – | –
6 | OC[C@H]1OCCNC[C@H]1c1ccc(Cl)c(Cl)c1 (racemic) [Example 25, [(6RS,7SR)-6-(3,4-dichlorophenyl)-1,4-oxazepan-7-yl]methanol monohydrochloride] | 29 | 65 | 46 | 94 | 99 | 100 | – | – | – | – | – | –
7 | CS(=O)(=O)C[C@@H]1CNCCO[C@@H]1c1ccc(Cl)c(Cl)c1 (racemic) [Example 50, (6RS,7SR)-7-(3,4-dichlorophenyl)-6-[(methylsulfonyl)methyl]-1,4-oxazepane monohydrochloride] | 100 | – | 64 | – | 98 | – | – | – | – | – | – | –
8 | CCNC(=O)NC[C@@H]1CNCCO[C@@H]1c1ccc(Cl)c(Cl)c1 (racemic) [Example 52, 1-{[(6RS,7RS)-7-(3,4-dichlorophenyl)-1,4-oxazepan-6-yl]methyl}-3-ethylurea monohydrochloride] | 99 | – | 29 | – | 97 | – | – | – | – | – | – | –
9 | CC(=O)N[C@@H]1CNCCO[C@@H]1c1ccc(Cl)c(Cl)c1 (racemic) [Example 62, N-[(6RS,7RS)-7-(3,4-dichlorophenyl)-1,4-oxazepan-6-yl]acetamide monohydrochloride] | 98 | – | 64 | – | 100 | – | – | – | – | – | – | –
10 | CS(=O)(=O)N[C@@H]1CNCCO[C@@H]1c1ccc(Cl)c(Cl)c1 (racemic) [Example 63, N-[(6RS,7RS)-7-(3,4-dichlorophenyl)-1,4-oxazepan-6-yl]methanesulfonamide monohydrochloride] | 93 | – | 82 | – | 100 | – | – | – | – | – | – | –
